Experimental data published in PMC8359193, “Summary of reference chemicals evaluated by the fish short‐term reproduction assay, OECD TG229, using Japanese Medaka, Oryzias latipes” (Journal of Applied Toxicology, 2021).

Assays:
[1] = test system: Japanese medaka (Oryzias latipes); test: Fish short-term reproduction assay (FSTRA, OECD TG229), 21-day flow-through exposure; settings: for Fertility rate (%) / Mortality (%) Female / Mortality (%) Male / Number of fertilized eggs / Number of total eggs / SSC Female / SSC Male / VTG (ng/mg of liver) Female / VTG (ng/mg of liver) Male: 21 days; for GSI Female / GSI Male / HSI Female / HSI Male / Length Female / Length Male / Weight Female / Weight Male: at completion of exposure
In short: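 Japanese medaka (NIES-R strain, 16 ± 2 weeks old) were exposed in flow-through tanks for 3 weeks, three males and three females per tank, four replicate tanks per group, with a dilution water control. Concentrations were spaced by a factor of 2–5. Eggs were collected daily and counted as fertilized or unfertilized.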

medaka ARβ (mARβ) = medaka ARβ (mARβ) (Oryzias latipes, UniProt D1MV73); test: Medaka ARβ reporter gene assay (RGA), antagonist assay with 50 nM 11KT, HepG2 cells; format: cell-based, Japanese medaka (Oryzias latipes); settings: 50 nM 11KT-induced mARβ activity
Chain of medaka ARβ (mARβ) (D1MV73 entry or part of it): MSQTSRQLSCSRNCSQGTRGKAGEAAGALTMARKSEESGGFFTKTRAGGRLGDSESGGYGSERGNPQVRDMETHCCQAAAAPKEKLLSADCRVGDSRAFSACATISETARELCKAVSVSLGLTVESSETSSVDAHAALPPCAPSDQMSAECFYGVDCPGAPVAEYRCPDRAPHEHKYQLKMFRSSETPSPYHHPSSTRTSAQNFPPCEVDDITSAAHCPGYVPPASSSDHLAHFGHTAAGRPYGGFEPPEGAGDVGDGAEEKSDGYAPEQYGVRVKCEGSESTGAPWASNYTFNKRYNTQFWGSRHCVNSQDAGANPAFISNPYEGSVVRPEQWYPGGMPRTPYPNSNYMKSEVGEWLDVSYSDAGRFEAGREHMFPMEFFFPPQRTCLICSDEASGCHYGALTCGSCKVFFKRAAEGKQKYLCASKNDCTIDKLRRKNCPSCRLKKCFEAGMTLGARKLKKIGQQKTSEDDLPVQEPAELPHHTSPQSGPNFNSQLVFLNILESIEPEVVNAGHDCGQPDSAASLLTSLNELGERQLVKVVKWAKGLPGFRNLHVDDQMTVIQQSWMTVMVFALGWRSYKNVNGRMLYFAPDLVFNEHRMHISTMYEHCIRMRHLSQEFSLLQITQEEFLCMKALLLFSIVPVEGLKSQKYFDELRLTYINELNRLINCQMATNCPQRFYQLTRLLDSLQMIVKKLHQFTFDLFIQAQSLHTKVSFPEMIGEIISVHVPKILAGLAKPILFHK
Description: To support interpretation of the biological effects observed in the FSTRA studies, in vitro RGAs using medaka Esr1 (mEsr1) and medaka ARβ (mARβ) were performed for the 16 test chemicals. In the present study, Esr1 and ARβ, which are ancestral subtypes among Esrs and ARs in Japanese medaka, were selected based on the phylogenetical analyses of Esr and AR with each receptor RGAs (Ogino et al., [2016], [2018]; Tohyama et al., [2015]).
The mARβ RGA in which the agonist and the antagonist assays were performed as same as the mEsr1 RGA was carried out according to the methods previously reported by Lange et al. ([2015]). For the assays, human liver cancer cell line, HepG2, was used as the host cells, and mARβ/pcDNA3.1, MMTV‐Luc, and pRL‐TK‐Rlu were used as mARβ expression vector, reporter vector, and internal control vector, respectively. Other materials and methods, for example, operating procedure, reagents, and incubation conditions, were almost the same as the mEsr1 RGA previously described beside that 11KT (Sigma‐Aldrich, purity 99.0%), a main AR ligand in fish, was competitively spiked at 50 nM into the test medium with test chemicals in antagonist assay. In the agonist and the antagonist assays, 11KT and 2‐hydroxyflutamide (2HFLT; Sigma‐Aldrich, purity 98.5%) were used as positive controls, respectively.
Effect concentrations, that is, EC50 (a half maximal effective concentration) in the agonist assay and IC50 (a half maximal inhibitory concentration) in the antagonist assay, were estimated by nonlinear curve fitting (e.g., three parameters logistic regression curve) using GraphPad Prism (GraphPad Software Inc., La Jolla, CA, USA).

fathead minnow = test system: fathead minnow; parameters: method as in Panter et al. (2004); settings: 21-day exposure; ref Panter et al. (2004); cited from earlier work

CC(C)C(=O)Nc1ccc([N+](=O)[O-])c(C(F)(F)F)c1 [FLT, Flutamide]
Fertility rate (%) ([1]; measured conc. 119 μg/L): 94% | Mortality (%) Female ([1]; measured conc. 119 μg/L): 0% | Mortality (%) Male ([1]; measured conc. 119 μg/L): 0% | Number of fertilized eggs ([1]; measured conc. 119 μg/L): 25 | Number of total eggs ([1]; measured conc. 119 μg/L): 26 ± 2.3 /female/day | SSC Female ([1]; measured conc. 119 μg/L): 0 ± 0 | SSC Male ([1]; measured conc. 119 μg/L): 86 ± 18 | VTG (ng/mg of liver) Female ([1]; measured conc. 119 μg/L): 908 ± 255 ng/mg of liver | VTG (ng/mg of liver) Male ([1]; measured conc. 119 μg/L): 47.9 ± 41.8 ng/mg of liver | GSI Female ([1]; measured conc. 119 μg/L): 10.1% | GSI Male ([1]; measured conc. 119 μg/L): 1.10% | HSI Female ([1]; measured conc. 119 μg/L): 4.2% | HSI Male ([1]; measured conc. 119 μg/L): 2.0% | Length Female ([1]; measured conc. 119 μg/L): 34.2 mm | Length Male ([1]; measured conc. 119 μg/L): 35.6 mm | Weight Female ([1]; measured conc. 119 μg/L): 426 mg | Weight Male ([1]; measured conc. 119 μg/L): 445 mg | Fertility rate (%) ([1]; measured conc. 248 μg/L): 94% | Mortality (%) Female ([1]; measured conc. 248 μg/L): 0% | Mortality (%) Male ([1]; measured conc. 248 μg/L): 0% | Number of fertilized eggs ([1]; measured conc. 248 μg/L): 26 | Number of total eggs ([1]; measured conc. 248 μg/L): 28 ± 3.1 /female/day | SSC Female ([1]; measured conc. 248 μg/L): 0 ± 0 | SSC Male ([1]; measured conc. 248 μg/L): 82 ± 15 | VTG (ng/mg of liver) Female ([1]; measured conc. 248 μg/L): 970 ± 200 ng/mg of liver | VTG (ng/mg of liver) Male ([1]; measured conc. 248 μg/L): 35.8 ± 41.5 ng/mg of liver | GSI Female ([1]; measured conc. 248 μg/L): 10.9% | GSI Male ([1]; measured conc. 248 μg/L): 1.10% | HSI Female ([1]; measured conc. 248 μg/L): 4.6% | HSI Male ([1]; measured conc. 248 μg/L): 2.1% | Length Female ([1]; measured conc. 248 μg/L): 33.7 mm | Length Male ([1]; measured conc. 248 μg/L): 35.0 mm | Weight Female ([1]; measured conc. 248 μg/L): 428 mg | Weight Male ([1]; measured conc. 248 μg/L): 394 mg | Fertility rate (%) ([1]; measured conc. 497 μg/L): 96% | Mortality (%) Female ([1]; measured conc. 497 μg/L): 0% | Mortality (%) Male ([1]; measured conc. 497 μg/L): 0% | Number of fertilized eggs ([1]; measured conc. 497 μg/L): 27 | Number of total eggs ([1]; measured conc. 497 μg/L): 28 ± 3.0 /female/day | SSC Female ([1]; measured conc. 497 μg/L): 0 ± 0 | SSC Male ([1]; measured conc. 497 μg/L): 82 ± 16 | VTG (ng/mg of liver) Female ([1]; measured conc. 497 μg/L): 812 ± 159 ng/mg of liver | VTG (ng/mg of liver) Male ([1]; measured conc. 497 μg/L): 38.7 ± 44.8 ng/mg of liver | GSI Female ([1]; measured conc. 497 μg/L): 10.3% | GSI Male ([1]; measured conc. 497 μg/L): 1.20% | HSI Female ([1]; measured conc. 497 μg/L): 4.8% | HSI Male ([1]; measured conc. 497 μg/L): 1.9% | Length Female ([1]; measured conc. 497 μg/L): 34.3 mm | Length Male ([1]; measured conc. 497 μg/L): 35.9 mm | Weight Female ([1]; measured conc. 497 μg/L): 470 mg | Weight Male ([1]; measured conc. 497 μg/L): 429 mg | Fertility rate (%) ([1]; measured conc. 925 μg/L): 93% | Mortality (%) Female ([1]; measured conc. 925 μg/L): 0% | Mortality (%) Male ([1]; measured conc. 925 μg/L): 0% | Number of fertilized eggs ([1]; measured conc. 925 μg/L): 27 | Number of total eggs ([1]; measured conc. 925 μg/L): 29 ± 3.1 /female/day | SSC Female ([1]; measured conc. 925 μg/L): 0 ± 0 | SSC Male ([1]; measured conc. 925 μg/L): 93 ± 16 | VTG (ng/mg of liver) Female ([1]; measured conc. 925 μg/L): 830 ± 131 ng/mg of liver | VTG (ng/mg of liver) Male ([1]; measured conc. 925 μg/L): 50.8 ± 53.8 ng/mg of liver | GSI Female ([1]; measured conc. 925 μg/L): 11.5% | GSI Male ([1]; measured conc. 925 μg/L): 1.10% | HSI Female ([1]; measured conc. 925 μg/L): 4.5% | HSI Male ([1]; measured conc. 925 μg/L): 2.0% | Length Female ([1]; measured conc. 925 μg/L): 34.2 mm | Length Male ([1]; measured conc. 925 μg/L): 35.8 mm | Weight Female ([1]; measured conc. 925 μg/L): 453 mg | Weight Male ([1]; measured conc. 925 μg/L): 416 mg | effect on fecundity (number of total eggs), in words ([1]; within the test concentrations, 21-day exposure): No effect | mARβ antagonist activity (in words) (medaka ARβ (mARβ)): inhibited | concentration that significantly reduced the number of nuptial tubercles in males (fathead minnow): 938.6 µg/L
